Assay results: patent publication US6653313B2, “1,4-dihydropyridine compounds as bradykinin antagonists” (Warner-Lambert Company LLC, priority 2000, dated 2003)
Structures can show the parent of a compound that is named as a salt.

COC(=O)C1=C(CCc2ccccc2NS(=O)(=O)C(F)(F)F)NC(CC(=O)N2CCN(C3CC4CCC(C3)N4C)CC2)=C(C(=O)OC)C1c1c(Cl)cccc1Cl (stereo not shown) (as salt: HCl)
melting point: 218 to 220 °C (dec.)

COC(=O)C1=C(CCc2ccccc2C(=O)N2CCNCC2)NC(CC(=O)N2CCN(C3CC4CCC(C3)N4C)CC2)=C(C(=O)OC)C1c1c(Cl)cccc1Cl (stereo not shown) (as salt: HCl)
melting point: 198 to 200 °C (dec.)

COC(=O)C1=C(CCc2ccccc2COCCN2CCCC2)NC(CC(=O)N2CCN(C3CC4CCC(C3)N4C)CC2)=C(C(=O)OC)C1c1c(Cl)cccc1Cl.O=C(O)CCC(=O)O (stereo not shown)
melting point: 168 °C (dec.)

COC(=O)C1=C(CCc2ccccc2NS(C)(=O)=O)NC(CC(=O)N2CCN(C3CC4CCC(C3)N4C)CC2)=C(C(=O)OC)C1c1c(Cl)cccc1Cl (stereo not shown) (as salt: HCl)
melting point: 143 °C

CCNCCOCc1ccccc1CCC1=C(C(=O)OC)C(c2c(Cl)cccc2Cl)C(C(=O)OC)=C(CC(=O)N2CCN(C34CCCC(CC3)N4C)CC2)N1 (stereo not shown) (as salt: citrate)
melting point: 151 °C

CCN(CC)Cc1ccccc1CCC1=C(C(=O)OC)C(c2c(Cl)cccc2Cl)C(C(=O)OC)=C(CC(=O)N2CCN(C3CC4CCC(C3)N4C)CC2)N1 (stereo not shown) (as salt: HCl)
melting point: 77 to 79 °C (dec.)

CNC(=O)CCC(=O)NCc1ccccc1CCC1=C(C(=O)OC)C(c2c(Cl)cccc2Cl)C(C(=O)OC)=C(CC(=O)N2CCN(C3CC4CCC(C3)N4C)CC2)N1 (stereo not shown) (as salt: citrate)
melting point: 158 to 160 °C (dec.)
